Data on four compounds can be found in patent US10568976B2, “3,6,9, 15-tetraaza-bicyclo [9.3.1 ]pentadeca-1(14), 11(15), 12-triene based compounds and their application as ligands of essential metal ion based MRI and 52MN based PET contrast agents” (DEBRECENI EGYETEM, priority 2015, dated 2020).

A short description of data set [1]: Protonation constants of the ligands (equilibrium study). It is filed as physicochemical. Particulars: 25° C., 0.15M NaCl. As to the method: (§1) During the physico-chemical tests of tPC2AM^Pyp and tPC2AM^Pro compounds synthesized according to Example 1 and 2, their protonation constant, as well as equilibrium behaviour and kinetic inertism of their Mn(II) complexes was studied in detail, and the characteristic relaxivity values of the complexes were determined in the presence and absence of HSA (Human Serum Albumin), at 25 and 37° C. and physiological pH. All studies were performed in the presence of 0.15 M NaCl, the same concentration as that of the electrolyte under physiological conditions.
(§2) The results of equilibrium study are summarized in Table 1, in addition to the protonation constants, total basicity of ligands and stability constants of their Mn(II) complexes, the pMn value calculated for complexes are also represented in the table.

Data set [2] in a line: Stability constants of Mn(II) complexes and calculated pMn (equilibrium study). It is filed as physicochemical. As to conditions: 25° C., 0.15M NaCl; for pMn: calculated from equilibrium constants at pH = 7.4 and cMn = cL = 10^−5 M. As to the method:
as §1, §2
Based on the pMn values represented in Table 1 (calculated using the equilibrium constants at pH=7.4 and cMn=cL=10^−5 M), it can be concluded that the studied Mn(II) complexes are formed in 100% at physiological pH, which is an essential aspect of the practical use.

The conditions of data set [3]: literature value, 'under the same conditions'; cited from earlier work.
The conditions of data set [4]: cited from earlier work.

Turning to `O=C(CN1CCNCCN(CC(=O)N2CCCCC2)Cc2cccc(n2)C1)N1CCCCC1` [tPC2AM^Pyp], in data set [1], the “logK1 (protonation constant)” value is 11.31(1), the “logK2 (protonation constant)” value is 3.94(3) and the “ΣlogKi^H (total basicity)” value was 15.26. In data set [2], the “logKMnL (stability constant of Mn(II) complex)” value was 13.09(2) and the pMn was 7.09.
Take `O=C(O)C1CCCN1C(=O)CN1CCNCCN(CC(=O)N2CCCC2C(=O)O)Cc2cccc(n2)C1` (stereo not shown) [tPC2AM^Pro]: in data set [1], the “logK1 (protonation constant)” value was 9.80(2), the “logK2 (protonation constant)” value is given as 7.96(4), the “logK3 (protonation constant)” value was 3.65(5) and the “logK4 (protonation constant)” value is 2.26(4). Also, the “ΣlogKi^H (total basicity)” value in data set [1] stood at 23.67. Further, in data set [2], the “logKMnL (stability constant of Mn(II) complex)” value is 13.77(3) and the pMn was 7.85.
In the case of `CNC[C@H](O)[C@@H](O)[C@H](O)[C@H](O)CO.O=C([O-])CN1CCN(CC(=O)[O-])CCN(CC(=O)O)CCN(CC(=O)[O-])CC1.[Gd+3]` [DOTAREM], the r1 relaxivity in data set [3] is 3.83 mM⁻¹ s⁻¹.
Take `CNC[C@H](O)[C@@H](O)[C@H](O)[C@H](O)CO.CNC[C@H](O)[C@@H](O)[C@H](O)[C@H](O)CO.O=C([O-])CN(CCN(CC(=O)[O-])CC(=O)O)CCN(CC(=O)[O-])CC(=O)O.[Gd+3]` [MAGNEVIST]: in data set [3], the r1 relaxivity is 4.02 mM⁻¹ s⁻¹. Moreover, the “Gd(III) ion released, calculated on the basis of experiments at 25° C.” value in data set [4] (25° C.) was 0.5%. Moreover, the “Gd(III) ion released during in vivo dissociation” value in data set [4] (37° C.) was 2.2%.
